Values joined by “and” are separate entries in the source; they are usually repeats but may differ in a detail not shown here. Equal entries are not always repeated. Toxic doses and inconclusive results are not listed. No stated cut-off is given here; in the data, active means T/C of 150% or more; inactive means T/C below 125%.
System: L1210 leukemia ip in BDF1 mice, survival T/C
Assay: NCI In Vivo Anticancer Drug Screen. Data for tumor model L1210 Leukemia (intraperitoneal) in B6D2F1 (BDF1) mice
Settings: higher = longer survival
Method in brief: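 In this screen, tumor-bearing mice given compound are compared to those given vehicle, and their survival values are reported as a treated-to-control quotient.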

[1] = endpoint: mean survival time, dose: 100.0 mg/kg/injection, schedule: Q01DX001 (ip), vehicle: other
[2] = endpoint: mean survival time, dose: 200.0 mg/kg/injection, schedule: Q01DX001 (ip), vehicle: other
[3] = endpoint: mean survival time, dose: 400.0 mg/kg/injection, schedule: Q01DX001 (ip), vehicle: other
[4] = endpoint: mean survival time, dose: 400.0 mg/kg/injection, schedule: Q01DX001 (ip), vehicle: saline

Measured: T/C

C=CCc1c[nH]c(=S)[nH]c1=O.[Hg]
inactive: endpoint: mean survival time, dose: 3.12 mg/kg/injection, schedule: Q01DX001 (ip), vehicle: Klucel (hydroxypropylcellulose) (HPC) 98 % of control | endpoint: mean survival time, dose: 6.0 mg/kg/injection, schedule: Q01DX009 (ip), vehicle: Klucel (hydroxypropylcellulose) (HPC) 98 % of control | endpoint: mean survival time, dose: 6.0 mg/kg/injection, schedule: Q04DX003 (ip), vehicle: Klucel (hydroxypropylcellulose) (HPC) 97 % of control | endpoint: mean survival time, dose: 6.25 mg/kg/injection, schedule: Q01DX001 (ip), vehicle: Klucel (hydroxypropylcellulose) (HPC) 98 % of control | endpoint: mean survival time, dose: 12.0 mg/kg/injection, schedule: Q01DX009 (ip), vehicle: Klucel (hydroxypropylcellulose) (HPC) 94 % of control | endpoint: mean survival time, dose: 12.0 mg/kg/injection, schedule: Q04DX003 (ip), vehicle: Klucel (hydroxypropylcellulose) (HPC) 100 % of control | endpoint: mean survival time, dose: 12.5 mg/kg/injection, schedule: Q01DX001 (ip), vehicle: Klucel (hydroxypropylcellulose) (HPC) 93 % of control and 96 % of control | endpoint: mean survival time, dose: 50.0 mg/kg/injection, schedule: Q01DX001 (ip), vehicle: Klucel (hydroxypropylcellulose) (HPC) 93 % of control

CC(=O)OCC1OC(n2ccc3c(=O)[nH]cnc32)C(OC(C)=O)C1OC(C)=O (stereo unspecified)
inactive: endpoint: mean survival time, dose: 25.0 mg/kg/injection, schedule: Q01DX015 (ip), vehicle: carboxymethylcellulose (CMC) 121 % of control | endpoint: mean survival time, dose: 50.0 mg/kg/injection, schedule: Q01DX001 (ip), vehicle: carboxymethylcellulose (CMC) 94 % of control | endpoint: mean survival time, dose: 50.0 mg/kg/injection, schedule: Q01DX015 (ip), vehicle: carboxymethylcellulose (CMC) 112 % of control | endpoint: mean survival time, dose: 100.0 mg/kg/injection, schedule: Q01DX001 (ip), vehicle: carboxymethylcellulose (CMC) 96 % of control | endpoint: mean survival time, dose: 200.0 mg/kg/injection, schedule: Q01DX001 (ip), vehicle: carboxymethylcellulose (CMC) 100 % of control | endpoint: mean survival time, dose: 400.0 mg/kg/injection, schedule: Q01DX001 (ip), vehicle: carboxymethylcellulose (CMC) 102 % of control

Cc1cnc(=S)[nH]c1N
inactive: endpoint: mean survival time, dose: 50.0 mg/kg/injection, schedule: Q01DX009 (ip), vehicle: saline 99 % of control | endpoint: mean survival time, dose: 100.0 mg/kg/injection, schedule: Q01DX009 (ip), vehicle: saline 95 % of control | endpoint: mean survival time, dose: 100.0 mg/kg/injection, schedule: Q04DX003 (ip), vehicle: saline 101 % of control | endpoint: mean survival time, dose: 200.0 mg/kg/injection, schedule: Q01DX009 (ip), vehicle: saline 99 % of control | endpoint: mean survival time, dose: 200.0 mg/kg/injection, schedule: Q04DX003 (ip), vehicle: saline 105 % of control

COC(=O)/C=C\C=C(\CBr)C(=O)OC
inactive: endpoint: mean survival time, dose: 6.25 mg/kg/injection, schedule: Q01DX009 (ip), vehicle: saline 104 % of control | endpoint: mean survival time, dose: 6.25 mg/kg/injection, schedule: Q04DX003 (ip), vehicle: saline sonified 103 % of control | endpoint: mean survival time, dose: 12.5 mg/kg/injection, schedule: Q01DX009 (ip), vehicle: saline 96 % of control | endpoint: mean survival time, dose: 12.5 mg/kg/injection, schedule: Q04DX003 (ip), vehicle: saline sonified 97 % of control | endpoint: mean survival time, dose: 25.0 mg/kg/injection, schedule: Q01DX009 (ip), vehicle: saline 110 % of control | endpoint: mean survival time, dose: 25.0 mg/kg/injection, schedule: Q04DX003 (ip), vehicle: saline sonified 95 % of control

N=C1SCCS1
inactive: endpoint: mean survival time, dose: 100.0 mg/kg/injection, schedule: Q04DX002 (ip), vehicle: saline 92 % of control | endpoint: mean survival time, dose: 200.0 mg/kg/injection, schedule: Q04DX002 (ip), vehicle: saline 101 % of control | endpoint: mean survival time, dose: 400.0 mg/kg/injection, schedule: Q04DX002 (ip), vehicle: saline 105 % of control

CN(N=O)C(=O)Nc1ccccc1
inactive: endpoint: mean survival time, dose: 6.25 mg/kg/injection, schedule: Q01DX Z (ip), vehicle: carboxymethylcellulose (CMC) 104 % of control | endpoint: mean survival time, dose: 12.5 mg/kg/injection, schedule: Q01DX Z (ip), vehicle: carboxymethylcellulose (CMC) 112 % of control | endpoint: mean survival time, dose: 25.0 mg/kg/injection, schedule: Q01DX Z (ip), vehicle: carboxymethylcellulose (CMC) 112 % of control | endpoint: mean survival time, dose: 50.0 mg/kg/injection, schedule: Q01DX Z (ip), vehicle: carboxymethylcellulose (CMC) 122 % of control | endpoint: mean survival time, dose: 100.0 mg/kg/injection, schedule: Q01DX Z (ip), vehicle: carboxymethylcellulose (CMC) 91 % of control | endpoint: mean survival time, dose: 150.0 mg/kg/injection, schedule: Q01DX001 (ip), vehicle: carboxymethylcellulose (CMC) 112 % of control | endpoint: mean survival time, dose: 600.0 mg/kg/injection, schedule: Q01DX001 (ip), vehicle: carboxymethylcellulose (CMC) 117 % of control

O=c1nc(NC(=S)Nc2ccn(C3OC(CO)C(O)C3O)c(=O)n2)ccn1C1OC(CO)C(O)C1O (stereo unspecified)
active: endpoint: mean survival time, dose: 100.0 mg/kg/injection, schedule: Q01DX005 (ip), vehicle: saline 168 % of control and 188 % of control | endpoint: mean survival time, dose: 200.0 mg/kg/injection, schedule: Q01DX001 (ip), vehicle: saline 158 % of control | endpoint: mean survival time, dose: 200.0 mg/kg/injection, schedule: Q01DX005 (ip), vehicle: saline 206 % of control and 218 % of control | [3] 193 % of control | [4] 217 % of control | endpoint: mean survival time, dose: 400.0 mg/kg/injection, schedule: Q01DX001 (ip), vehicle: water 171 % of control and 215 % of control | endpoint: mean survival time, dose: 600.0 mg/kg/injection, schedule: Q01DX001 (ip), vehicle: other 163 % of control | endpoint: mean survival time, dose: 800.0 mg/kg/injection, schedule: Q01DX001 (ip), vehicle: saline 452 % of control | endpoint: mean survival time, dose: 800.0 mg/kg/injection, schedule: Q01DX001 (ip), vehicle: water 196 % of control and 177 % of control and 361 % of control | endpoint: mean survival time, dose: 1600.0 mg/kg/injection, schedule: Q01DX001 (ip), vehicle: water 368 % of control | endpoint: median survival time, dose: 12.5 mg/kg/injection, schedule: Q03HX024 (ip), vehicle: saline 180 % of control | endpoint: median survival time, dose: 25.0 mg/kg/injection, schedule: Q03HX024 (ip), vehicle: saline 180 % of control | endpoint: median survival time, dose: 50.0 mg/kg/injection, schedule: Q03HX024 (ip), vehicle: saline 295 % of control | endpoint: median survival time, dose: 100.0 mg/kg/injection, schedule: Q01DX009 (ip), vehicle: saline 190 % of control | endpoint: median survival time, dose: 200.0 mg/kg/injection, schedule: Q01DX009 (ip), vehicle: saline 152 % of control | endpoint: median survival time, dose: 200.0 mg/kg/injection, schedule: Q04DX003 (ip), vehicle: saline 195 % of control | endpoint: median survival time, dose: 400.0 mg/kg/injection, schedule: Q01DX001 (ip), vehicle: saline 185 % of control | endpoint: median survival time, dose: 400.0 mg/kg/injection, schedule: Q04DX003 (ip), vehicle: saline 233 % of control | endpoint: median survival time, dose: 800.0 mg/kg/injection, schedule: Q01DX001 (ip), vehicle: saline 233 % of control | endpoint: median survival time, dose: 800.0 mg/kg/injection, schedule: Q04DX003 (ip), vehicle: saline 342 % of control | endpoint: median survival time, dose: 1600.0 mg/kg/injection, schedule: Q01DX001 (ip), vehicle: saline 204 % of control
inactive: endpoint: mean survival time, dose: 50.0 mg/kg/injection, schedule: Q01DX001 (ip), vehicle: other 104 % of control | endpoint: mean survival time, dose: 50.0 mg/kg/injection, schedule: Q01DX001 (ip), vehicle: water 103 % of control and 106 % of control and 114 % of control | [1] 110 % of control | endpoint: mean survival time, dose: 100.0 mg/kg/injection, schedule: Q01DX001 (ip), vehicle: water 106 % of control | [2] 109 % of control and 116 % of control | endpoint: median survival time, dose: 200.0 mg/kg/injection, schedule: Q01DX001 (oral), vehicle: saline 104 % of control | endpoint: median survival time, dose: 400.0 mg/kg/injection, schedule: Q01DX001 (oral), vehicle: saline 104 % of control | endpoint: median survival time, dose: 800.0 mg/kg/injection, schedule: Q01DX001 (oral), vehicle: saline 100 % of control

CSc1nc(N)nc2nc(C)cc(C)c12
inactive: endpoint: mean survival time, dose: 100.0 mg/kg/injection, schedule: Q01DX Z (ip), vehicle: methylcellulose (MC) 110 % of control

O=S(=O)(c1ccc(N=NN2CCCC2)cc1)N(CCCl)CCCl
inactive: endpoint: mean survival time, dose: 100.0 mg/kg/injection, schedule: Q04DX002 (ip), vehicle: saline with Tween-80 101 % of control | endpoint: mean survival time, dose: 200.0 mg/kg/injection, schedule: Q04DX002 (ip), vehicle: saline with Tween-80 101 % of control | endpoint: mean survival time, dose: 400.0 mg/kg/injection, schedule: Q04DX002 (ip), vehicle: saline with Tween-80 108 % of control

O=C(CBr)c1cccc2c1Nc1ccccc1S2
inactive: endpoint: mean survival time, dose: 75.0 mg/kg/injection, schedule: Q01DX001 (ip), vehicle: saline 98 % of control

Nn1cnc2c(=S)nc[nH]c21
inactive: endpoint: mean survival time, dose: 42.0 mg/kg/injection, schedule: Q01DX015 (ip), vehicle: other 101 % of control | endpoint: mean survival time, dose: 72.0 mg/kg/injection, schedule: Q01DX015 (ip), vehicle: other 101 % of control | [1] 102 % of control | endpoint: mean survival time, dose: 177.0 mg/kg/injection, schedule: Q01DX001 (ip), vehicle: other 97 % of control | endpoint: mean survival time, dose: 177.0 mg/kg/injection, schedule: Q01DX001 (ip), vehicle: saline 102 % of control | [2] 102 % of control | endpoint: mean survival time, dose: 200.0 mg/kg/injection, schedule: Q01DX015 (ip), vehicle: other 86 % of control | endpoint: mean survival time, dose: 266.0 mg/kg/injection, schedule: Q01DX001 (ip), vehicle: other 115 % of control | endpoint: mean survival time, dose: 266.0 mg/kg/injection, schedule: Q01DX001 (ip), vehicle: saline 101 % of control | [4] 104 % of control
active: [3] 154 % of control and 164 % of control | endpoint: mean survival time, dose: 600.0 mg/kg/injection, schedule: Q01DX001 (ip), vehicle: saline 167 % of control
